Tested on: STAT3 phosphorylation and STAT3 regulated genes (survivin, cyclin D1)
Test: Western immunoblotting of MDA-MB-468 cells (P-STAT3, survivin, cyclin D1)
Type: cell-based, human
Conditions: 100 μM overnight, Western blot
Experimental: To assess the ability of lead γ-AA peptides to modulate the expression of STAT3 regulated genes, Western immunoblotting was carried out to determine the effect of γ-AA peptides on the expression levels of survivin and cyclin D1. Briefly, Western blots were prepared using cells that were harvested and lysed for 30 min on ice with occasional vortexing in 150 mM Hepes, pH 7.5, 150 mM NaCl, 1 mM EDTA, 0.5% NP-40, 10% glycerol, 5 mM NaF, 1 mM DTT, 1 mM PMSF, 2 mM Na3VO4, and 5 μg/ml leupeptin. Proteins readings were done using the Bradford protein assay, and equal amounts of protein for each sample were loaded into the wells of SDS-PAGE gels. After separation, proteins were transferred to nitrocellulose and Western blots were performed as previously described (Zhang, et al., A Novel Inhibitor of STAT3 Homodimerization Selectively Suppresses STAT3 Activity and Malignant Transformation. Cancer Research 2013, 73, 1922-1933).

## S3I-1757
  STAT3 phosphorylation (P-STAT3): blocked STAT3 phosphorylation

From patent publication US10351596B2, “γ-AA-peptide STAT3/DNA inhibitors and methods of use” (H. Lee Moffitt Cancer Center and Research Institute, Inc., priority 2014, dated 2019)
